Assay results published in patent publication US20030033631A1, “Method for reducing pest damage to corn by treating transgenic corn seeds with thiamethoxam pesticide” (Monsanto Technology, L.L.C., priority 2000, published 2003).

System: western and northern corn rootworm
Assay: Field trial of corn rootworm feeding damage to corn roots (Iowa 1-6 rating)
Type: in vivo
Settings: Cry3Bb.11231 transgenic corn seeds treated with thiamethoxam (300 or 400 gm AI/100 kg seed) compared with transgenic seeds without pesticide treatment, Iowa 1-6 root rating
Source text: Field trials for the determination of efficacy of transgenic event Cry3Bb.11231 in corn seed in combination with corn root worm pesticide seed treatments against western and northern corn rootworm.
Field trials can be run in accordance with pertinent protocols and in conformance with USDA notification requirements. The purpose of the trials is to determine the efficacy of transgenic event Cry3Bb.11231 in corn seed in combination with corn root worm seed treatments against western and northern corn root worm.
For each growing site that is selected, the plot design would included the following:
The following seed treatment combinations can be used for each growing area: […]
The determination of damage by corn rootworm can be made according to the following protocol. […] In that system, the root systems of 10 corn plants per plot are recovered and scored using the 1-6 rating scale, where: 1=no injury or only a few minor feeding scars, 2=feeding injury evident, but no roots eaten back to 1½ inches of the plant, 3=at least one root eaten off to within 1½ inches of the plant, but never an entire node of roots destroyed, 4=one node of roots eaten back to within 1½ inches of the plant, 5=two nodes (circles) of roots eaten back to within 1½ inches of the plant, 6=three nodes (circles) of roots eaten back to within 1½ inches of the plant.

## CN1COCN(Cc2cnc(Cl)s2)/C1=N\[N+](=O)[O-] [thiamethoxam, 3-[(2-chloro-5-thiazolyl)mehthyl]tetrahydro-5-methyl-N-nitro-4H-1,3,5-oxadiazin-4-imine]
  resistance to corn rootworm damage: more resistant to corn rootworm damage than the transgenic seeds without such pesticide treatment
